Laboratory results as given in PubChem BioAssay (NCI).
Where “and” joins values, the source holds several entries; their conditions need not be identical. Equal values may be shown once.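 Where inhibition never reached the appropriate level, the endpoint shown equals the highest concentration tested. Otherwise, values were interpolated linearly from a five-concentration, 48-hour dose response in 96-well plates. GI50: concentration for 50% inhibition of growth. Definition used: TGI = concentration required for complete inhibition of growth.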

Assays:
Assay in all cases: NCI-60 cell line screen, 48 h
[1] = test system: BT-549 breast
[2] = test system: IGROV1 ovarian
[3] = test system: MDA-MB-435
[4] = test system: HL-60(TB) leukemia
[5] = test system: OVCAR-8 ovarian
[6] = test system: SF-295 CNS
[7] = test system: A498 renal
[8] = test system: U251 CNS
[9] = test system: HCC-2998 colon
[10] = test system: SR leukemia

SMILES	GI50 [1] [µM]	TGI [1] [µM]	GI50 [2] [µM]	TGI [2]	GI50 [3] [µM]	TGI [3] [µM]	GI50 [4]	TGI [4]	GI50 [5] [µM]	TGI [5] [µM]	GI50 [6] [µM]	TGI [6] [µM]	GI50 [7] [µM]	TGI [7]	GI50 [8] [µM]	TGI [8]	GI50 [9] [µM]	TGI [9]	TGI [10] [µM]	GI50 [10] [µM]
O=C(O)c1ccc(C(=O)O)c(C(=O)O)c1.[NH-]C1CCCCC1[NH-].[Pt+2]	23.8	54.2	4.57	44.6 µM	3.83	30.4	0.735 µM and 4.08 µM	18.8 µM	2.92	60.8	5.52	68.6	6.28	45.1 µM	8.84	59.1 µM	13.4	48.7 µM	–	–
Cc1cc2c(cc1C)[n+](=O)c(C(=O)CC(=O)C(=O)Nc1ccccc1C(C)C)c(C)n2[O-]	–	–	–	> 100 µM	–	–	–	> 100 µM	–	> 100	–	> 100	–	> 100 µM	–	> 100 µM	–	> 100 µM	> 100	–
O=C(NS(=O)(=O)c1ccc(NC[C@H]2COCCO2)c([N+](=O)[O-])c1)c1ccc(N2CCN(CC3=C(c4ccc(Cl)cc4)CC4(CCC4)CC3)CC2)cc1Oc1cnc2[nH]ccc2c1	2.42	5.39	1.93	3.91 µM	–	–	1.6 µM	4.83 µM	2.18	5.06	1.66	4.08	2.36	5.74 µM	2.19	5.38 µM	1.78	3.23 µM	5.31	1.82
COc1cc(C2C(C(=O)O)=C(COC(C)=O)Oc3cc4c(cc32)OCO4)cc(OC)c1OC(C)=O (centres undefined)	–	–	–	> 100 µM	–	–	–	> 100 µM	–	> 100	–	> 100	–	–	–	> 100 µM	–	–	–	–
C/C(=N/NC(=S)N1CC2CCC(CC2)C1)c1cnccn1	–	16.7	–	2.62 µM	–	16.4	–	3.18 µM	–	11.8	–	12.1	–	14.2 µM	–	4.28 µM	–	13.6 µM	–	–
O=C(O)CCC1CCc2cccc(OCC(=O)O)c2C1=O (centres undefined)	–	–	–	> 100 µM	–	–	–	> 100 µM	–	> 100	–	> 100	–	> 100 µM	–	> 100 µM	–	> 100 µM	–	–
N#Cc1c2ccccc2c2nnc3ccc(C(F)(F)F)cc3n12	21	44.6	47.9	> 100 µM	32.5	> 100	40 µM	> 100 µM	43.8	> 100	42.7	> 100	–	–	28.9	> 100 µM	–	–	> 100	0.214
CCC(C)(C)[C@H](NC(=O)[C@H]1CCCCN1C)C(=O)N(C)[C@H](C[C@@H](OC(C)=O)c1nc(C(=O)N[C@@H](Cc2ccccc2)C[C@H](C)C(=O)O)cs1)C(C)C	< 0.00167	0.0136	< 0.00167	> 16.7 µM	–	–	< 0.00167 µM	< 0.00167 µM	< 0.00167	> 16.7	< 0.00167	–	< 0.00167	0.0113 µM	< 0.00167	> 16.7 µM	< 0.00167	> 16.7 µM	> 16.7	< 0.00167
O=c1c(O)cc2c(O)oc3c(=O)c(O)c(O)c4c(O)oc1c2c43	–	–	–	> 100 µM	–	–	–	> 100 µM	–	> 100	–	50.4	–	> 100 µM	–	34.3 µM	–	> 100 µM	> 100	–
CC(=O)OCC1OC([Se-])C(OC(C)=O)C(OC(C)=O)C1OC(C)=O.N#CCC[PH+](CCC#N)CCC#N.[Au+] (centres undefined)	–	–	24.5	> 81.6 µM	–	–	1.87 µM	4.31 µM	12.7	> 93.5	13.7	35.9	–	–	10.9	> 48.8 µM	12.5	43.4 µM	13.7	3.06
O=C(Cc1ccccc1)N/N=C(/c1nc2ccc([N+](=O)[O-])cc2[nH]c1=O)C(O)c1ccccc1Cl (centres undefined)	–	–	–	> 100 µM	–	–	–	> 100 µM	–	> 100	–	> 100	–	> 100 µM	–	> 100 µM	–	> 100 µM	> 100	–
C=C1C(=O)c2cc3c(cc2C(c2cc(OC)c(OC)c(OC)c2)[C@@H]1C(=O)O)OCO3 (some centres undefined)	–	–	–	> 100 µM	–	–	–	–	–	> 100	–	> 100	–	> 100 µM	–	> 100 µM	–	> 100 µM	–	–
Cc1ccc(NC(=O)/C(=N\NC(N)=S)C(C#N)c2ccccc2C)cc1C (centres undefined)	–	–	–	> 100 µM	–	–	–	> 100 µM	–	> 100	–	> 100	–	> 100 µM	–	> 100 µM	–	> 100 µM	> 100	–
CCc1cccc(CC)c1NC(=O)CC1SC(N)=NC1=O (centres undefined)	–	–	–	> 100 µM	–	–	–	> 100 µM	–	> 100	–	> 100	–	> 100 µM	–	> 100 µM	–	> 100 µM	> 100	–
Cn1c2cc([N+](=O)[O-])ccc2c(=O)c2c(O)cc3c(c21)C=CC(C)(C)O3	–	–	–	> 100 µM	–	–	–	> 100 µM	–	> 100	–	47.1	–	> 100 µM	–	> 100 µM	–	> 100 µM	–	–
O=C(N/C=C/C=C/Sc1ccccc1)OCc1ccccc1	–	–	–	42.1 µM	–	–	–	> 100 µM	–	29.5	–	35.4	–	–	–	34 µM	–	42.8 µM	> 100	–
C=C(COC(C)=O)CC(/C=C(\C)CC/C=C(\C)CO)OC(C)=O (centres undefined)	–	–	–	> 100 µM	–	–	–	> 100 µM	–	> 100	–	> 100	–	> 100 µM	–	> 100 µM	–	> 100 µM	–	–
O=C([O-])CCc1ccccc1.O=C([O-])CCc1ccccc1.O=C([O-])CCc1ccccc1.O=C([O-])CCc1ccccc1.[Mo+2].[Mo+2]	–	–	> 100	> 100 µM	–	–	> 100 µM	> 100 µM	> 100	> 100	> 100	> 100	–	–	> 100	> 100 µM	> 100	> 100 µM	> 100	> 100
CCOC(=O)Nc1ccc2c(c1)N(C(=O)CCN(CC)CC)c1ccccc1S2	–	97.2	64	> 94.1 µM and 138 µM	–	–	16.1 µM	45.9 µM and 57.7 µM	1.51	2.5	–	54.4	33.3	58.9 µM and 99.7 µM	39.8	> 72.1 µM and 108 µM	–	32.8 µM and 75.7 µM	43.4	–
